Measured values from publication PMC4138078, “Chemically Modified Peptide Scaffolds Target the CFTR-Associated Ligand PDZ Domain” (PLoS ONE, 2014).
Structures can show the parent of a compound that is named as a salt. Peptide text beside a SMILES is read from it. * marks the point of attachment. Benzoyl(4-Br) = O=C(c1ccc(Br)cc1)*; Benzoyl(4-F) = O=C(c1ccc(F)cc1)*; Tfa = O=C(C(F)(F)F)*

Tests used:
Format in all cases: binding
CAL PDZ domain (CALP) [1] = target: T1, CAL PDZ domain (CALP) (Homo sapiens, UniProt Q9HD26); assay: Surface plasmon resonance (SPR), equilibrium analysis; conditions: SPR value relative to FP value
T1 construct: made in house
Description: SPR experiments were performed on a Biacore X100 Plus (GE Healthcare Life Sciences), with CALP covalently immobilized on a CM5 sensor chip. […] Sensorgrams were analyzed using the Biacore evaluation software. Experiments were performed in duplicate or triplicate (n≥2). A detailed description is provided in ref. [21].

CAL PDZ domain (CALP) [2] = target: T1, CAL PDZ domain (CALP); assay: Isothermal titration calorimetry (ITC); conditions: ITC value relative to FP value
Description: ITC experiments were performed and analyzed in a manner similar to that described previously, [20]. Titrations were performed with a Nano ITC 2G (TA Instruments). In brief, for a typical titration, 100–320 µM CALP was loaded into the 943 µL sample cell, and 2–3 mM peptide placed in a 250 µL injector syringe. For [drawing 8] , titrations were performed with polyhistidine-tagged CALP. Peptide concentrations were adjusted based on the amount of protein, so the final ratio of peptide to protein ranged between 3∶1–4∶1. Each titration included an initial 1 or 2 µL injection followed by 5 or 10 µL injections performed at 180 s intervals, for a total of 25–50 injections. The stirring speed was 250 rpm, and experimental temperature was 25°C. Thermograms were analyzed using NanoAnalyze software (TA Instruments). Details are described in ref. [21].

CAL PDZ domain (CALP) [3] = target: T1, CAL PDZ domain (CALP); assay: Fluorescence polarization (FP) competition/displacement assay; conditions: for binding affinity stronger than iCAL36: FP displacement
Description: FP competition experiments were performed as previously described, [17].
For illustrative purposes, a logistic curve-fit is shown, but K I values and fractional reporter occupancy values were determined by least-squares fitting of the complete binding equation.

| Compound | fold-deviation of K D from SPR from the value obtained by FP (CAL PDZ domain (CALP) [1]) | fold-deviation of K D from ITC from the value obtained by FP (CAL PDZ domain (CALP) [2]) | change in binding affinity compared to iCAL36 (CAL PDZ domain (CALP) [3]; head-to-head FP displacement assays) | binding affinity stronger than iCAL36 (CAL PDZ domain (CALP) [3]) |
| --- | --- | --- | --- | --- |
| H-ANSRWPK(Ac)SII-OH [Peptide C00002] | (0.7) fold | (0.5) fold | – | – |
| CC[C@H](C)[C@H](NC(=O)[C@H](CCCCNC(=O)c1ccc(Br)cc1)NC(=O)[C@H](CO)NC(=O)[C@@H](NC(=O)[C@@H]1CCCN1C(=O)[C@H](Cc1c[nH]c2ccccc12)NC(=O)[C@H](CCCNC(=N)N)NC(=O)[C@H](CO)NC(=O)[C@H](CC(N)=O)NC(=O)[C@H](C)N)[C@@H](C)O)C(=O)O [Peptide C00005] (H-ANSRWPTSK(Benzoyl(4-Br))I-OH) | (1.8) fold | (1.9) fold | – | ~2 fold |
| CC[C@H](C)[C@H](NC(=O)[C@@H](NC(=O)[C@H](CO)NC(=O)[C@@H](NC(=O)[C@H](CCCCNC(C)=O)NC(=O)[C@H](Cc1c[nH]c2ccccc12)NC(=O)[C@H](CCCNC(=N)N)NC(=O)[C@H](CO)NC(=O)[C@H](CC(N)=O)NC(=O)[C@H](C)N)[C@@H](C)O)[C@@H](C)CC)C(=O)O [Peptide C00003] | (2.0) fold | (1.5) fold | – | – |
| H-ANSRWPTSK(Ac)I-OH [Peptide C00001] | (2.7) fold | (1.8) fold | – | – |
| CC[C@H](C)[C@H](NC(=O)[C@@H](NC(=O)[C@H](CO)NC(=O)[C@@H](NC(=O)[C@@H]1CCCN1C(=O)[C@H](Cc1c[nH]c2ccccc12)NC(=O)[C@H](CCCNC(=N)N)NC(=O)[C@H](CO)NC(=O)[C@H](CC(N)=O)NC(=O)[C@H](C)NC(C)=O)[C@@H](C)O)[C@@H](C)CC)C(=O)O [Ac-iCAL36] | – | – | no significant change | – |

Second part, led by results:

| fold-deviation of K D from SPR from the value obtained by FP (CAL PDZ domain (CALP) [1]) | fold-deviation of K D from ITC from the value obtained by FP (CAL PDZ domain (CALP) [2]) | change in binding affinity compared to iCAL36 (CAL PDZ domain (CALP) [3]; head-to-head FP displacement assays) | Compound | binding affinity stronger than iCAL36 (CAL PDZ domain (CALP) [3]) |
| --- | --- | --- | --- | --- |
| (1.6) fold | (2.4) fold | – | CC[C@H](C)[C@H](NC(=O)[C@H](CCCCNC(=O)C(F)(F)F)NC(=O)[C@H](CO)NC(=O)[C@@H](NC(=O)[C@@H]1CCCN1C(=O)[C@H](Cc1c[nH]c2ccccc12)NC(=O)[C@H](CCCNC(=N)N)NC(=O)[C@H](CO)NC(=O)[C@H](CC(N)=O)NC(=O)[C@H](C)N)[C@@H](C)O)C(=O)O [Peptide C00007] (H-ANSRWPTSK(Tfa)I-OH) | – |
| (0.5) fold | – | – | CC[C@H](C)[C@H](NC(=O)[C@@H](NC(=O)[C@H](CO)NC(=O)[C@@H](NC(=O)[C@@H]1CCCN1C(=O)[C@H](CCCCNC(C)=O)NC(=O)[C@H](CCCNC(=N)N)NC(=O)[C@H](CO)NC(=O)[C@H](CC(N)=O)NC(=O)[C@H](C)N)[C@@H](C)O)[C@@H](C)CC)C(=O)O [Peptide C00004] | – |
| (2.4) fold | (1.1) fold | – | CC[C@H](C)[C@H](NC(=O)[C@H](CCCCNC(=O)c1ccc(F)cc1)NC(=O)[C@H](CO)NC(=O)[C@@H](NC(=O)[C@@H]1CCCN1C(=O)[C@H](Cc1c[nH]c2ccccc12)NC(=O)[C@H](CCCNC(=N)N)NC(=O)[C@H](CO)NC(=O)[C@H](CC(N)=O)NC(=O)[C@H](C)N)[C@@H](C)O)C(=O)O [Peptide C00006] (H-ANSRWPTSK(Benzoyl(4-F))I-OH) | ~2 fold |
